# Measured values published in the supplement of paper PMC10307832.
# How the values were obtained:
# Assay in all cases: relative viability (nuclei count vs DMSO), 5 days (fraction); higher = more cells survive
# A-427 = tested on: A-427
# In short: (§1)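 Lung cancer cell lines in 1536-well plates got either a single drug or a fixed anchor-drug dose together with five library-drug doses (not always all listed) in √10 steps, by pin tool, on the day after seeding. Nuclei were counted after 5 days, and relative viability is the treated-to-vehicle ratio of nuclei counts. Values are medians of duplicate plates.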
# COR-L 105 = tested on: COR-L 105
# In short: as §1
# EPLC-272H = tested on: EPLC-272H
# In short: as §1
# HCC-366 = tested on: HCC-366
# In short: as §1
# HCC-78 = tested on: HCC-78
# In short: as §1
# HOP-62 = tested on: HOP-62
# In short: as §1
# LC-2-ad = tested on: LC-2-ad
# In short: as §1
# LCLC-97TM1 = tested on: LCLC-97TM1
# In short: as §1
# LU99A = tested on: LU99A
# In short: as §1
# LXF-289 = tested on: LXF-289
# In short: as §1
# NCI-H1755 = tested on: NCI-H1755
# In short: as §1
# NCI-H1792 = tested on: NCI-H1792
# In short: as §1
structure (smiles),measurement,setting,value
Clc1ccc(Nc2nnc(Cc3ccncc3)c3ccccc23)cc1 [Vatalanib] + N=C(N)NC(=N)NCCc1ccccc1 [Phenformin] (partner 250 µM),relative viability,A-427; first compound 0.04 µM,0.427
same,relative viability,A-427; first compound 0.1265 µM,0.295
same,relative viability,A-427; first compound 0.4 µM,0.285
same,relative viability,A-427; first compound 1.265 µM,0.31
same,relative viability,A-427; first compound 4 µM,0.298
same,relative viability,COR-L 105; first compound 0.04 µM,0.469
same,relative viability,COR-L 105; first compound 0.1265 µM,0.37
same,relative viability,COR-L 105; first compound 0.4 µM,0.475
same,relative viability,COR-L 105; first compound 1.265 µM,0.45
same,relative viability,COR-L 105; first compound 4 µM,0.423
same,relative viability,EPLC-272H; first compound 0.04 µM,0.324
same,relative viability,EPLC-272H; first compound 0.1265 µM,0.323
same,relative viability,EPLC-272H; first compound 0.4 µM,0.275
same,relative viability,EPLC-272H; first compound 1.265 µM,0.349
same,relative viability,EPLC-272H; first compound 4 µM,0.348
same,relative viability,HCC-366; first compound 0.04 µM,0.597
same,relative viability,HCC-366; first compound 0.1265 µM,0.554
same,relative viability,HCC-366; first compound 0.4 µM,0.6
same,relative viability,HCC-366; first compound 1.265 µM,0.575
same,relative viability,HCC-366; first compound 4 µM,0.547
same,relative viability,HCC-78; first compound 0.04 µM,0.589
same,relative viability,HCC-78; first compound 0.1265 µM,0.613
same,relative viability,HCC-78; first compound 0.4 µM,0.631
same,relative viability,HCC-78; first compound 1.265 µM,0.649
same,relative viability,HCC-78; first compound 4 µM,0.575
same,relative viability,HOP-62; first compound 0.04 µM,0.668
same,relative viability,HOP-62; first compound 0.1265 µM,0.65
same,relative viability,HOP-62; first compound 0.4 µM,0.649
same,relative viability,HOP-62; first compound 1.265 µM,0.624
same,relative viability,HOP-62; first compound 4 µM,0.633
same,relative viability,LC-2-ad; first compound 0.04 µM,0.652
same,relative viability,LC-2-ad; first compound 0.1265 µM,0.553
same,relative viability,LC-2-ad; first compound 1.265 µM,0.517
same,relative viability,LC-2-ad; first compound 4 µM,0.55
same,relative viability,LCLC-97TM1; first compound 0.04 µM,0.417
same,relative viability,LCLC-97TM1; first compound 0.1265 µM,0.388
same,relative viability,LCLC-97TM1; first compound 0.4 µM,0.46
same,relative viability,LCLC-97TM1; first compound 1.265 µM,0.407
same,relative viability,LCLC-97TM1; first compound 4 µM,0.396
same,relative viability,LU99A; first compound 0.04 µM,0.839
same,relative viability,LU99A; first compound 0.1265 µM,0.764
same,relative viability,LU99A; first compound 0.4 µM,1.04
same,relative viability,LU99A; first compound 1.265 µM,0.705
same,relative viability,LU99A; first compound 4 µM,0.813
same,relative viability,LXF-289; first compound 0.04 µM,0.505
same,relative viability,LXF-289; first compound 0.1265 µM,0.465
same,relative viability,LXF-289; first compound 0.4 µM,0.558
same,relative viability,LXF-289; first compound 1.265 µM,0.53
same,relative viability,LXF-289; first compound 4 µM,0.539
same,relative viability,NCI-H1755; first compound 0.04 µM,0.613
same,relative viability,NCI-H1755; first compound 0.1265 µM,0.577
same,relative viability,NCI-H1755; first compound 0.4 µM,0.661
same,relative viability,NCI-H1755; first compound 1.265 µM,0.596
same,relative viability,NCI-H1755; first compound 4 µM,0.603
same,relative viability,NCI-H1792; first compound 0.04 µM,0.257
same,relative viability,NCI-H1792; first compound 0.4 µM,0.224
same,relative viability,NCI-H1792; first compound 1.265 µM,0.236
same,relative viability,NCI-H1792; first compound 4 µM,0.386
